Results on 20 molecules are retold here after patent US10351519B2, “Sulfamate derivative compounds, processes for preparing them and their uses” (BIO-PHARM SOLUTIONS CO., LTD., priority 2016, dated 2019).

What all share (type): in vivo
For one assay, the system named is SD rats. Nature of the assay: Anti-epilepsy activity, MES test, rat. How it is done:
(§1) In the MES test (Ref., G. Villetti et al. Neuropharmacology 40 (2001) 866-878), an electrical stimulus (mice: 50 mA, 60 Hz, 0.2 sec, and rats: 150 mA, 60 Hz, 0.2 sec in the test animal) supplied by an 11A Shocker (IITC Life Science Company) was delivered through corneal electrodes. All mice or rats assigned to any electroshock at peak time were treated with each test compound sample which was dissolved in 30% PEG 400 or 20% tween 80 prepared by saline solvent applied orally before the test. […] Three doses of the test sample were administered orally to 9-18 animals (3-6 mice per dose) for evaluating the respective doses at which 50% of the animals were protected from seizure (ED50). The ED50 value (median effective dose) was calculated by Litchfield and Wicoxon log-probit method which is a dose-response relationship. Experimental animals, male ICR mice and male SD rats, were purchased from OrientBio, Samtako, or Nara Biotech, Korea, and housed in cages (4-5 mice or 3 rats per cage) for 4-5 days. The range of mice body weight was between 19 and 25 grams and range of rats body weight was between 100 and 130 grams.

The subject of another assay is ICR mice. Nature of the assay: Anti-epilepsy activity, MES test, mouse. The note with it: for responders at 50 mg/kg / responders at 30 mg/kg / ED50: po; for responders at 50 mg/kg / responders at 30 mg/kg: read-out: MES test (po) efficacy %. The method, then: as §1
In assay [1] the test system is Sprague-Dawley rats. Briefly: Antiallodynic activity on Complete Freund's Adjuvant (CFA)-induced inflammatory pain model. The note with it: intraperitoneally; for response vs control in vivo at 50 mg/kg: Rattus norvegicus, ip, read-out: CFA-induced pain model efficacy %. The method, then: Male, Sprague-Dawley rats (210-250 g, Nara Bio, Korea) were habituated for 1 week before CFA injection and allowed free access to food and water throughout the experimentation. Room temperature and humidity were maintained at 24±2 and 50±10%, respectively.
CFA-induced inflammatory pain was induced by the procedure of Nagakura et al. (2003) and Gregory P. et al. (2010) with minor modifications. CFA (sigma, USA) was injected in the right plantar with a 100 ul volume under gaseous anesthesia with isoflurane. Sham controls were injected with 100 ul of saline and preparation of the vehicles without compound in the vehicle control group. Tactile sensitivity (Mechanical allodynia) was evaluated using von Frey monofilaments before and after treatment, and the animals were included in the study only if the withdrawal threshold value was less than 4 g. One week after surgery, CFA-infused treatment animals (n=4-6), sham-operated animals (n=12), and vehicle control animals (n=17) were tested for tactile sensitivity with von Frey monofilaments 3 trials for each animal. All Animals were placed in a stainless steel mesh chamber and habituated for 30 min in the test box. The tactile sensitivity for ipsilateral hind paw was measured using the up-and-down method (Dixon, 1980) with seven von Frey monofilaments (0.4, 1, 2, 4, 6, 8, and 15 g) to 3 trials. Tactile sensitivity test was followed by Dixon's method (Dixon, 1980). The 50% paw withdrawal threshold for each paw was calculated using the following formula: [Xth] log=[vFr] log+ky where [vFr] is the force of the last von Frey used, k=0.2249 which is the average interval (in log units) between the von Frey monofilaments, and y is a value that depends upon the pattern of withdrawal responses (Dixon, 1980).
Antiallodynic effect of compound was evaluated at the dose of 10-60 mg/kg (n=4-6), intraperitoneally administrated in a volume of 5 ul/g bw in a vehicle of 30% (v/v) PEG or 20% (v/v) Tween 80. The test was performed peak time of efficacy (0.5 or 1 hr) after compound administration.
The relative values compared to the sham (% control) were calculated and shown in Table 4, which show an antiallodynic effect of Compound 1 on CFA-induced pain model in rats.

In assay [2] the test system is Sprague-Dawley rats. Briefly: Antiallodynic activity on Chung model (SNL, spinal nerve ligation). The note with it: orally; for SNL efficacy %: 30 mg/kg. An excerpt:
Male Sprague-Dawley rats (100-130 g, Orient Bio, Korea) were habituated for 1 week before the experiment and allowed free access to food and water throughout the experimentation. Room temperature and humidity were maintained at 24±2 and 50±10%, respectively. The neuropathic surgery (SNL, Spinal nerve ligation) model was done as described in Kim and Chung (1992). Briefly, an animal was put under gaseous anesthesia with isoflurane. The left lumber spinal nerve L5 and L6 were isolated and tightly ligated with 6-0 silk thread. The wound muscle was closed with Catgut® chrom 3/0 thread and skin was closed with Dafilon 3/0 tread. Sham controls were prepared in the same manner with the spinal nerves exposed, but with no ligated L5 and L6 nerves. Preparation of the vehicle controls were identical to the group treated with compound, except for administration of vehicles without compound in the vehicle control group.
Tactile sensitivity (Mechanical allodynia) was evaluated using von Frey monofilaments before and after treatment, and animals were included in the study only if the withdrawal threshold value was less than 4 g. One week after surgery, SNL-operated animals, sham-operated animals and vehicle control animals were tested for tactile sensitivity with von Frey monofilaments 3 trials in each animal. All Animals were placed in a stainless steel mash chamber and habituated for 30 min in the test cage. The tactile sensitivity for the ipsilateral hind paw was measured using the up-and-down method (Dixon, 1980) with seven von Frey monofilaments (0.4, 1, 2, 4, 6, 8, and 15 g) in 3 trials. The tactile sensitivity test was followed by Dixon's method (Dixon, 1980). The 50% paw withdrawal threshold for each paw was calculated using the following formula: [Xth] log=[vFr] log+ky where [vFr] is the force of the last von Frey used, k=0.2249 which is the average interval (in log units) between the von Frey monofilaments, and y is a value that depends upon the pattern of withdrawal responses (Dixon, 1980).
All animals were fasted 18 h before the administration of the compounds. Antiallodynic effect of compounds were evaluated at the three dose, orally administrated in a volume of 5 ul/g, bw in a vehicle of 30% (v/v) PEG 400 or 20% (v/v) Tween 80. The test was performed at the peak time of efficacy after compound administration.
The relative values compared to the sham group (% control) were calculated and shown in Table 3, which show an antiallodynic effect of the test compounds on SNL model in rats.

Each structure is given as a SMILES string.

Take `CC(C)NS(=O)(=O)O[C@@H](C)[C@@H](O)c1ccccc1Cl` [Example 37, (1S, 2S)-1-(2-chlorophenyl)-1-hydroxypropan-2-yl isopropylsulfamate]: the “MES test (po) Peak time” value in the assay with SD rats is on record as 2 h. In addition, in the assay with SD rats (10 mg/kg), the “MES test (po) efficacy %” value is 16.6%.

With `CC[C@H](OS(N)(=O)=O)[C@@H](O)c1ccccc1Cl` [Example 11, (1S, 2S)-1-(2-chlorophenyl)-1-hydroxybutan-2-yl sulfamate], the “MES test (po) Peak time” value with SD rats and in the assay with ICR mice was 2 h throughout. In the assay with SD rats (24 mg/kg), the “MES test (po) efficacy %” value came to 33.3%. Besides, the responders at 50 mg/kg in the assay with ICR mice was 25%.

Take `CC(C)[C@@H](OS(N)(=O)=O)[C@H](O)c1ccccc1Cl` [Example 14, (1R, 2R)-1-(2-chlorophenyl)-1-hydroxy-3-methylbutan-2-yl sulfamate]: in the assay on ICR mice, the “MES test (po) Peak time” value was determined as 1 h and the responders at 50 mg/kg came out at 25%. Moreover, in the assay on Sprague-Dawley rats [1], the response vs control in vivo at 50 mg/kg amounted to 18.4% and the “CFA-induced pain model Peak Time” value is listed as 1 h.

As to `COCO[C@@H](c1ccccc1I)[C@H](C)OS(N)(=O)=O` [Example 74, (1S, 2S)-1-(2-iodophenyl)-1-(methoxymethoxy)propan-2-yl sulfamate], in the assay on ICR mice, the “MES test (po) Peak time” value is recorded as 0.5 h and the responders at 30 mg/kg is 33.3%. In addition, in the assay with Sprague-Dawley rats [1], the response vs control in vivo at 50 mg/kg was 19.9% and the “CFA-induced pain model Peak Time” value is reported as 0.5 h.

For orientation: ED50 means the dose at which the effect has come halfway, by size or by number of responders. A low value points to an effect at a small dose. Regarding `C[C@H](OS(N)(=O)=O)[C@@H](O)c1sc(Cl)nc1Cl` [Example 102, (1R,2S)-1-(2,4-dichlorothiazol-5-yl)-1-hydroxypropan-2-yl sulfamate], in the assay with ICR mice, the “MES test (po) Peak time” value worked out at 2 h and the ED50 was found to be 42.7 mg/kg.

With `COCO[C@@H](c1c(Cl)cccc1Cl)[C@H](C)OS(N)(=O)=O` [Example 57, (1S, 2S)-1-(2,6-dichlorophenyl)-1-(methoxymethoxy)propan-2-yl sulfamate], in the assay on Sprague-Dawley rats [2], the “SNL Peak Time” value came to 1 h and the SNL efficacy % is listed as 30(26.3%).

Take `COCO[C@@H](c1sc(Cl)nc1Cl)[C@H](C)OS(N)(=O)=O` [Example 103, (1R,2S)-1-(2,4-dichlorothiazol-5-yl)-1-(methoxymethoxy)propan-2-yl sulfamate]: in the assay with ICR mice, the “MES test (po) Peak time” value was 2 h and the ED50 came out at 52.7 mg/kg.

Regarding `CC[C@@H](OS(N)(=O)=O)[C@H](O)c1ccccc1Cl` [Example 12, (1R, 2R)-1-(2-chlorophenyl)-1-hydroxybutan-2-yl sulfamate], the “MES test (po) Peak time” value with SD rats worked out at 1 h. The “MES test (po) efficacy %” value in the assay on SD rats (100 mg/kg) is recorded as 100%. In the assay with Sprague-Dawley rats [1], the response vs control in vivo at 50 mg/kg came out at 21.9% and the “CFA-induced pain model Peak Time” value was determined as 0.5 h.

`COCO[C@@H](c1c(F)cccc1Cl)[C@H](C)OS(N)(=O)=O` [Example 61, (1S, 2S)-1-(2-chloro-6-fluorophenyl)-1-(methoxymethoxy)propan-2-yl sulfamate]: in the assay on ICR mice, the “MES test (po) Peak time” value was 2 h and the responders at 30 mg/kg stood at 33.3%.

As for `C[C@H](OS(N)(=O)=O)[C@@H](O)c1cccc(Cl)c1Cl` [Example 9, (1S, 2S)-1-(2,3-dichlorophenyl)-1-hydroxypropan-2-yl sulfamate], in the assay on ICR mice, the “MES test (po) Peak time” value was 4 h and the 50% effect level (ED50) was put at a dose of 61.8 mg/kg.

On to `COCO[C@H](c1ccccc1Cl)[C@@H](C)OS(=O)(=O)NC1CC1` [Example 79, (1R, 2R)-1-(2-chlorophenyl)-1-(methoxymethoxy)propan-2-yl cyclopropylsulfamate], for which, in the assay with ICR mice, the “MES test (po) Peak time” value is on record as 1 h and the responders at 50 mg/kg worked out at 25%.

Turning to `COCO[C@@H](c1ccccc1Cl)[C@H](C)OS(=O)(=O)NC1CC1` [Example 78, (1S, 2S)-1-(2-chlorophenyl)-1-(methoxymethoxy)propan-2-yl cyclopropylsulfamate], in the assay with ICR mice, the “MES test (po) Peak time” value turned out to be 4 h and the responders at 50 mg/kg amounted to 25%.

For the molecule `COCO[C@@H](c1cccc(Cl)c1Cl)[C@H](C)OS(N)(=O)=O` [Example 53, (1S, 2S)-1-(2,3-dichlorophenyl)-1-(methoxymethoxy)propan-2-yl sulfamate], in the assay with ICR mice, the “MES test (po) Peak time” value is listed as 2 h and the 50% effect level (ED50) was put at a dose of 67.8 mg/kg.

As for `CC[C@@H](OS(N)(=O)=O)[C@H](OCOC)c1ccccc1Cl` [Example 71, (1R, 2R)-1-(2-chlorophenyl)-1-(methoxymethoxy)butan-2-yl sulfamate], in the assay on Sprague-Dawley rats [1], the response vs control in vivo at 50 mg/kg was determined as 41.9% and the “CFA-induced pain model Peak Time” value is 0.5 h. In the assay on Sprague-Dawley rats [2], the “SNL Peak Time” value was determined as 0.5 h and the SNL efficacy % is 30(31.9%).

On to `CC(C)[C@H](OS(N)(=O)=O)[C@@H](O)c1ccccc1Cl` [Example 13, (1S, 2S)-1-(2-chlorophenyl)-1-hydroxy-3-methylbutan-2-yl sulfamate], for which, in the assay with ICR mice, the “MES test (po) Peak time” value worked out at 1 h and the responders at 50 mg/kg was 25%.

In the case of `C[C@H](OS(N)(=O)=O)[C@@H](O)c1ccc(Cl)cc1Cl` [Example 3, (1S, 2S)-1-(2,4-dichlorophenyl)-1-hydroxypropan-2-yl sulfamate], the “MES test (po) Peak time” value with SD rats was 4 h. For the same molecule, the “MES test (po) efficacy %” value in the assay on SD rats (20 mg/kg) is on record as 16.6%.

Regarding `COCO[C@H](c1c(Cl)cccc1Cl)[C@@H](C)OS(N)(=O)=O` [Example 58, (1R, 2R)-1-(2,6-dichlorophenyl)-1-(methoxymethoxy)propan-2-yl sulfamate], in the assay on ICR mice, the “MES test (po) Peak time” value came to 1 h and the ED50 came to 54.4 mg/kg. For the same molecule, in the assay on Sprague-Dawley rats [1], the response vs control in vivo at 50 mg/kg is 17.7% and the “CFA-induced pain model Peak Time” value turned out to be 0.5 h.

In the case of `CC(C)NS(=O)(=O)O[C@H](C)[C@H](O)c1ccccc1Cl` [Example 38, (1R, 2R)-1-(2-chlorophenyl)-1-hydroxypropan-2-yl isopropylsulfamate], in the assay with ICR mice, the “MES test (po) Peak time” value is recorded as 2 h and the responders at 50 mg/kg amounted to 50%.

For the molecule `COCO[C@@H](c1ccccc1F)[C@H](C)OS(N)(=O)=O` [Example 72, (1S, 2S)-1-(2-fluorophenyl)-1-(methoxymethoxy)propan-2-yl sulfamate], in the assay with Sprague-Dawley rats [1], the response vs control in vivo at 50 mg/kg amounted to 25.9% and the “CFA-induced pain model Peak Time” value is given as 0.5 h.

On to `CO[C@@H](c1ccccc1I)[C@H](C)OS(N)(=O)=O` [Example 92, (1S,2S)-1-(2-iodophenyl)-1-methoxypropan-2-yl sulfamate], for which, in the assay with Sprague-Dawley rats [1], the response vs control in vivo at 50 mg/kg was determined as 31.8% and the “CFA-induced pain model Peak Time” value is 0.5 h.
